Test results: patent US7803930B2, “Antisense modulation of apolipoprotein B-expression” (Isis Pharmaceuticals, Inc., priority 2002, dated 2010)
In the oligonucleotide strings, read from the 5' end, every base follows the letter of its sugar. An asterisk marks phosphorothioate; unmarked linkages are phosphodiester. Other units and linkages are bracketed, terminal groups are in braces. A string of capitals states the bases alone. e = 2'-O-(2-methoxyethyl) (MOE); [5mC] = 5-methylcytosine; d = 2'-deoxy (DNA)

Columns and labels:
[1] = Toxicity in C57BL/6 mice, two weeks (Example 48): liver enzyme levels, body, liver and spleen weight; assay type: in vivo, mouse; set-up: Weight BODY / Weight LIVER / Weight SPLEEN: unit not given here; conditions: 25 mg/kg i.p. twice a week
Method: C57BL/6 mice were divided into two groups—one group receiving oligonucleotide treatment and control animals receiving saline treatment. After overnight fasting, mice were dosed intraperitoneally twice a week with saline or 25 mg/kg of one of several oligonucleotides for two weeks. The antisense oligonucleotides used in the present study were ISIS 233172 (SEQ ID NO: 835) and ISIS 233175 (SEQ ID NO: 838), both targeted to rabbit apolipoprotein B, and ISIS 281625 (SEQ ID NO: 224), ISIS 301012 (SEQ ID NO: 247), and ISIS 301027 (SEQ ID NO: 262), targeted to human apolipoprotein B. At study termination and forty eight hours after the final injections, animals were sacrificed and evaluated for liver enzyme levels, body weight, liver weight, and spleen weight.

[2] = tested on: rabbit apolipoprotein B mRNA; assay: Inhibition of rabbit apolipoprotein B mRNA levels in primary rabbit hepatocytes, real-time PCR; assay type: cell-based; set-up: % INHIB of rabbit apolipoprotein B mRNA levels: concentration or dose not given beside the values; conditions: for Percent Inhibition of rabbit apolipoprotein B mRNA levels: averages from two experiments
Description: Primary rabbit hepatocytes were purchased from Invitro Technologies (Gaithersburg, Md.) and maintained in Dulbecco's modified Eagle's medium (Gibco). When purchased, the cells had been seeded into 96-well plates for use in RT-PCR analysis and were confluent.
In accordance with the present invention, a series of oligonucleotides was designed to target different regions of rabbit apolipoprotein B, using published sequences (GenBank accession number X07480.1, incorporated herein as SEQ ID NO: 808, GenBank accession number M17780.1, incorporated herein as SEQ ID NO: 809, and a sequence was derived using previously described primers (Tanaka, Journ. Biol. Chem., 1993,268, 12713-12718) representing an mRNA of the rabbit apolipoprotein B, incorporated herein as SEQ ID NO: 810). “Target site” indicates the first (5′-most) nucleotide number on the particular target sequence to which the oligonucleotide binds. All compounds in Table 21 are chimeric oligonucleotides (“gapmers”) 20 nucleotides in length, composed of a central “gap” region consisting of ten 2′-deoxynucleotides, which is flanked on both sides (5′ and 3′ directions) by five-nucleotide “wings”. The wings are composed of 2′-methoxyethyl (2′-MOE)nucleotides. The internucleoside (backbone) linkages are phosphorothioate (P═S) throughout the oligonucleotide. All cytidine residues are 5-methylcytidines. The compounds were analyzed for their effect on rabbit apolipoprotein B mRNA levels in primary rabbit hepatocytes by quantitative real-time PCR as described in other examples herein. Primary rabbit hepatocytes were treated with 150 nM of the compounds in Table 21. For rabbit apolipoprotein B the PCR primers were: • forward primer: AAGCACCCCCAATGTCACC (SEQ ID NO: 811) • reverse primer: […] (SEQ ID NO: 812) and the PCR probe was: FAM-[…]-TAMRA (SEQ ID NO: 813) where FAM (PE-Applied Biosystems, Foster City, Calif.) is the fluorescent reporter dye) and TAMRA (PE-Applied Biosystems, Foster City, Calif.) is the quencher dye. Data are averages from two experiments. If present, “N.D.” indicates “no data”.
In accordance with the present invention, a subset of the antisense oligonuclotides in Example 42 was further investigated in dose-response studies. Treatment doses were 10, 50, 150 and 300 nM. ISIS 233160 (SEQ ID NO: 824), ISIS 233166 (SEQ ID NO: 830), ISIS 233172 (SEQ ID NO: 835), ISIS 233175 (SEQ ID NO: 838), and ISIS 233183 (SEQ ID NO: 846) were analyzed for their effect on rabbit apolipoprotein B mRNA levels in primary rabbit hepatocytes by quantitative real-time PCR as described in other examples herein.

[3] = tested on: Cynomolgous monkey apolipoprotein B mRNA; assay: Apolipoprotein B mRNA in primary Cynomolgous monkey hepatocytes, real-time PCR; assay type: cell-based; conditions: for % Inhibition of apolipoprotein B mRNA: primary Cynomolgous monkey hepatocytes
Method: Antisense inhibition by ISIS 301012 was compared to that of ISIS 326358, which is a perfect match to the Cynomolgous monkey apolipoprotein B sequence to which ISIS 301012 hybridizes. The compounds were analyzed for their effect on Cynomolgous monkey apolipoprotein B mRNA levels in primary Cynomolgous monkey hepatocytes purchased from In Vitro Technologies ([…].). Pre-plated primary Cynonomolgous monkey hepatocytes were purchased from InVitro Technologies (Baltimore, Md.). Cells were cultured in high-glucose DMEM (Invitrogen Corporation, Carlsbad, Calif.) supplemented with 10% fetal bovine serum (Invitrogen Corporation, Carlsbad, Calif.), 100 units/mL and 100 μg/mL streptomycin (Invitrogen Corporation, Carlsbad, Calif.).
Primary Cynomolgous monkey hepatocytes were treated with 10, 50, 150 or 300 nM of antisense oligonucleotides for 48 hours. ISIS 113529 (SEQ ID NO: 859) was used as a control oligonucleotide. Untreated cells also served as a control. Cynomolgous monkey apolipoprotein B mRNA levels were quantitated by real-time PCR using the human apolipoprotein B and GAPDH primers and probes described by other examples herein. The results, shown in Table 44, are the average of 6 experiments and are expressed as percent inhibition of apolipoprotein B mRNA normalized to untreated control cells.
In a further embodiment of the invention, antisense inhibition by ISIS 281625 was compared to that by ISIS 315089, which is a perfect match to the Cynomolgous monkey apolipoprotein B sequence to which ISIS 281625 hybridizes. Primary Cynomolgous monkey hepatocytes, cultured as described herein, were treated with 10, 50, 150 or 300 nM of ISIS 315089 or ISIS 281625 for 24 hours. Cells were treated with the control oligonucleotide ISIS 13650 (SEQ ID NO: 806) at 150 and 300 nM or ISIS 113529 (SEQ ID NO: 859) at 300 nM. Untreated cells also served as a control. Cynomolgous monkey apolipoprotein B mRNA levels in primary Cynomolgous monkey hepatocytes was quantitated using real-time PCR with human primers and probe as described by other examples herein. The results, shown in Table 46, are the average of 3 experiments and are expressed as percent inhibition of apolipoprotein B mRNA normalized to untreated control cells.
ISIS 271009 (SEQ ID NO: 319) and ISIS 301027 (SEQ ID NO: 262) were also tested for their effects on apolipoprotein B mRNA and protein expression in Cynomolgous primary hepatoctyes. Cells, cultured as described herein, were treated with 10, 50 and 150 nM of ISIS 271009 or ISIS 301027 for 24 hours. Cells were treated with the control oligonucleotide ISIS 113529 (SEQ ID NO: 859) at 150 nM. Untreated cells also served as a control. Cynomolgous monkey apolipoprotein B mRNA levels in primary Cynomolgous monkey hepatocytes was quantitated using real-time PCR with human primers and probe as described by other examples herein. The results, shown in Table 48, are the average of 2 experiments and are expressed as percent inhibition of apolipoprotein B mRNA normalized to untreated control cells.

apolipoprotein B protein = assay: Apolipoprotein B protein secreted from primary Cynomolgous monkey hepatocytes, ELISA; assay type: cell-based; conditions: for % Reduction of monkey apolipoprotein B protein secretion / secretion of apolipoprotein B protein (ELISA): primary Cynomolgous hepatocytes; for % Reduction in secreted apolipoprotein B protein: primary Cynomolgous monkey hepatocytes
Method: Apolipoprotein B protein secreted from primary Cynomolgous hepatocytes treated with 150 and 300 nM of oligonucleotide was measured by ELISA using an apolipoprotein B protein specific kit (ALerCHEK Inc., Portland, Me.). Each result represents the average of 3 experiments.
Apolipoprotein B protein secreted primary Cynomolgous hepatocytes treated with 50 and 150 nM of ISIS 315089 and ISIS 281625 was measured by ELISA using an apolipoprotein B protein specific kit (ALerCHEK Inc., Portland, Me.). Each result represents the average of 3 experiments.
Apolipoprotein B protein secreted from primary Cynomolgous hepatocytes treated with 50 and 150 nM of ISIS 271009 and ISIS 301027 was measured by ELISA using an apolipoprotein B protein specific kit (ALerCHEK Inc., Portland, Me.). Each result represents the average of 3 experiments.

233172 (antisense eA*eT*eG*eG*eA*dA*dG*dA*d[5mC]*dT*dG*dG*d[5mC]*dA*dG*e[5mC]*eT*e[5mC]*eT*eA) [compound 233172]
Liver Enzymes ALT [1]: 43.3 IU/L
Liver Enzymes AST [1]: 94.3 IU/L
Weight BODY [1]: 21.3
Weight LIVER [1]: 1.3
Weight SPLEEN [1]: 0.1
% INHIB of rabbit apolipoprotein B mRNA levels [2]: 86%
Percent Inhibition of rabbit apolipoprotein B mRNA levels ([2]; 10 nM): 60%
Percent Inhibition of rabbit apolipoprotein B mRNA levels ([2]; 50 nM): 76%
Percent Inhibition of rabbit apolipoprotein B mRNA levels ([2]; 150 nM): 81%
Percent Inhibition of rabbit apolipoprotein B mRNA levels ([2]; 300 nM): 84%

233175 (antisense eG*eA*e[5mC]*e[5mC]*eT*dT*dG*dA*dG*dT*dA*dG*dA*dT*dT*e[5mC]*e[5mC]*eT*eG*eG) [compound 233175]
Liver Enzymes ALT [1]: 230.2 IU/L
Liver Enzymes AST [1]: 346.7 IU/L
Weight BODY [1]: 21.5
Weight LIVER [1]: 1.4
Weight SPLEEN [1]: 0.1
% INHIB of rabbit apolipoprotein B mRNA levels [2]: 90%
Percent Inhibition of rabbit apolipoprotein B mRNA levels ([2]; 10 nM): 67%
Percent Inhibition of rabbit apolipoprotein B mRNA levels ([2]; 50 nM): 85%
Percent Inhibition of rabbit apolipoprotein B mRNA levels ([2]; 150 nM): 90%
Percent Inhibition of rabbit apolipoprotein B mRNA levels ([2]; 300 nM): 93%

315089 (antisense eA*eG*eA*eT*eT*dA*d[5mC]*d[5mC]*dA*dG*d[5mC]*d[5mC]*dA*dT*dA*eT*eG*e[5mC]*eA*eG) [compound 315089]
% Inhibition of apolipoprotein B mRNA ([3]; 10 nM, 24 hours (Table 46), "+" = expression increased): 70%
% Inhibition of apolipoprotein B mRNA ([3]; 50 nM, 24 hours (Table 46)): 83%
% Inhibition of apolipoprotein B mRNA ([3]; 150 nM, 24 hours (Table 46), "+" = expression increased): 81%
% Inhibition of apolipoprotein B mRNA ([3]; 300 nM, 24 hours (Table 46)): 82%
% Reduction of monkey apolipoprotein B protein secretion (apolipoprotein B protein; 50 nM (Table 47)): 11%
% Reduction of monkey apolipoprotein B protein secretion (apolipoprotein B protein; 150 nM (Table 47)): 25%

326358 (antisense eG*e[5mC]*e[5mC]*eT*e[5mC]*dA*dG*dT*d[5mC]*dT*dG*d[5mC]*dT*dT*dT*eA*e[5mC]*eA*e[5mC]*e[5mC]) [compound 326358]
% Inhibition of apolipoprotein B mRNA ([3]; 10 nM, 24 hours): 35%
% Inhibition of apolipoprotein B mRNA ([3]; 10 nM, 48 hours): 85%
% Inhibition of apolipoprotein B mRNA ([3]; 50 nM, 24 hours): 66%
% Inhibition of apolipoprotein B mRNA ([3]; 50 nM, 48 hours): 88%
% Inhibition of apolipoprotein B mRNA ([3]; 150 nM, 24 hours): 61%
% Inhibition of apolipoprotein B mRNA ([3]; 150 nM, 48 hours): 82%
% Inhibition of apolipoprotein B mRNA ([3]; 300 nM, 24 hours): 64%
% Inhibition of apolipoprotein B mRNA ([3]; 300 nM, 48 hours): 87%
% Reduction in secreted apolipoprotein B protein (apolipoprotein B protein; 150 nM, 24 hours): 21%
% Reduction in secreted apolipoprotein B protein (apolipoprotein B protein; 150 nM, 48 hours): 29%
% Reduction in secreted apolipoprotein B protein (apolipoprotein B protein; 300 nM, 24 hours): 17%
% Reduction in secreted apolipoprotein B protein (apolipoprotein B protein; 300 nM, 48 hours): 35%

AGATTACCAGCCATATGCAG (gapmer: ten 2'-deoxy gap, five-nucleotide wings, wing chemistry not given here) [ISIS 315089]
inhibition of apolipoprotein B mRNA expression ([3]; Cynomolgous monkey primary hepatocytes, 10, 50, 150 or 300 nM, 24 hours): in a dose-dependent manner
secretion of apolipoprotein B protein (ELISA) (apolipoprotein B protein; 150 nM): decrease
secretion of apolipoprotein B protein (ELISA) (apolipoprotein B protein; 50 and 150 nM (statement after Table 49)): decrease

ISIS 233175: SEQ ID NO: 838, targeted to rabbit apolipoprotein B (antisense eG*eA*e[5mC]*e[5mC]*eT*dT*dG*dA*dG*dT*dA*dG*dA*dT*dT*e[5mC]*e[5mC]*eT*eG*eG)
levels of liver enzymes relative to saline treatment [1]: drastically increased
